# Test results reported in patent US20050196343A1, “Degradable nanoparticles” (Molecular Therapeutics, Inc., priority 2004, published 2005).
# System: intracerebral 9L gliomas
# Experiment: In vivo therapy of glioma using Photofrin-containing nanoparticles with laser (diffusion MRI, Kaplan-Meier survival)
# Design: species or system rat
# Details: 9L tumor rats, tail vein administration, FIG. 17
# Description: Rats harboring intracerebral 9L gliomas, were allowed to grow to approximately 50 microliters in size, as quantitated using multi-slice T2-weighted MRI. Rats were divided into the following groups: sham (untreated); laser exposure only; intravenous administered photofrin (no nanoparticles); photofrin-encapsulated nanoparticles; and photofrin-encapsulated nanoparticles with F3 targeting (n=5/group). Diffusion MRI scans were obtained prior to treatment and every 2-3 days following treatment. Treatment with laser administration consisted of 750 mW of laser light administered at 630 nm for 7.5 minutes of total exposure time. This was accomplished through the same 1 mm diameter burr hole which was initially made to inject the 9L tumor cells to initiate tumor growth. The depth of the cylindrical laser tip was adjusted, based upon the MRI scan data, to be at the base of the tumor mass in order to optimize light delivery to the overall tumor mass. Diffusion MRI scans were acquired in order to assess in real time, the effectiveness of treatment. Increased diffusion values within the tumor mass reflect areas of cell kill (necrosis) and the magnitude of the increase is proportional to the level of cell killing. As shown in the MRI scans in FIG. 15, control diffusion tumor values are on average at approximately 100 apparent diffusion coefficient units (ADC).
substance,measurement,value
Photofrin,survival times (Kaplan-Meier),no significant differences in survival times
